Where two headings read alike, the source gives them in different places. Where only a bound is given, the exact number is not on record here.

This note sets out measurements from patent US9493446B2, “Orexin receptor antagonists which are [ortho bi-(hetero-)aryl]-[2-(meta bi-(hetero-)aryl)-pyrrolidin-1-yl]-methanone derivatives” (Actelion Pharmaceuticals Ltd, priority 2012, dated 2016).

In one experiment the target is orexin-1 (Homo sapiens (Human), UniProt O43613). As to the kind of experiment: Intracellular calcium measurement (FLIPR), CHO cells expressing human orexin-1 receptor, 3 nM orexin-A. It counts as cell-based. Particulars: read-out: IC50 OX1. An outline of the steps:
(§1)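 Antagonist is added 120 min before agonist. Fluo-4 AM-loaded CHO cells carry human orexin-1 or orexin-2 receptor, and calcium is read by FLIPR.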

For another experiment, the target named is human orexin-2 receptor (Homo sapiens (Human), UniProt O43614). As to the kind of experiment: Intracellular calcium measurement (FLIPR), CHO cells expressing human orexin-2 receptor, 3 nM orexin-A. Particulars: read-out: IC50 OX2. It counts as cell-based. The procedure, abridged: as §1
Sequence of human orexin-2 receptor (O43614 whole entry): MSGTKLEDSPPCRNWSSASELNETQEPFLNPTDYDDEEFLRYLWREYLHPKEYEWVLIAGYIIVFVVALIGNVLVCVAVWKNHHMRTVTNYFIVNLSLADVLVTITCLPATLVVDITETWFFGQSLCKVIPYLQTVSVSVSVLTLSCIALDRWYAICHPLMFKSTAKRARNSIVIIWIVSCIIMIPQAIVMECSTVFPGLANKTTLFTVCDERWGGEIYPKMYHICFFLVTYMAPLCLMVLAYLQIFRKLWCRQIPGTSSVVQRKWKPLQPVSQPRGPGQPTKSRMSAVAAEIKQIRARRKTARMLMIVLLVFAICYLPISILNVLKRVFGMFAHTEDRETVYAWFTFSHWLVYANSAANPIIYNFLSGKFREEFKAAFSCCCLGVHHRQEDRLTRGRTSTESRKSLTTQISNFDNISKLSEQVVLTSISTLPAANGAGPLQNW
Where [1] appears, read: CHO cells expressing human orexin-1 receptor, FLIPR, 3 nM orexin-A, geometric mean if determined several times.
[2] abbreviates: CHO cells expressing human orexin-2 receptor, FLIPR, 3 nM orexin-A, geometric mean if determined several times.

Sequence of orexin-1 (O43613 whole entry): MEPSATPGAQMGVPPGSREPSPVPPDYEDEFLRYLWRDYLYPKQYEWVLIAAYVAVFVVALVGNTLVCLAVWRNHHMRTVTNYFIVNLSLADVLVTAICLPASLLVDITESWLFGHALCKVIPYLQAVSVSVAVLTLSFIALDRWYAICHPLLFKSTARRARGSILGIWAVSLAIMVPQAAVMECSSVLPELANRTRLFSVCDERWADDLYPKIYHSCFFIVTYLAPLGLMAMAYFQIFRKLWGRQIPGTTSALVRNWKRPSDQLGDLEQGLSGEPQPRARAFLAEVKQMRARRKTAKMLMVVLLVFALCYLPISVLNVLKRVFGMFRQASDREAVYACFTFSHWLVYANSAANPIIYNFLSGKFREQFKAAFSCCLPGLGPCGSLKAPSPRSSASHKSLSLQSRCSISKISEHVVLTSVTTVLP

For the molecule `Cc1ccc(-n2nccn2)c(C(=O)N2CCC[C@H]2c2nc(-c3ncccc3C)no2)c1` [compound 83, {(S)-2-[3-(3-Methyl-pyridin-2-yl)-[1,2,4]oxadiazol-5-yl]-pyrrolidin-1-yl}-(5-methyl-2-[1,2,3]triazol-2-yl-phenyl)-methanone], the half-maximal inhibitory concentration (IC50) on orexin-1 (setting [1]) was 3470 nM; at human orexin-2 receptor (setting [2]), 302 nM.

In the case of `O=C(c1ccoc1)N1CCC[C@H]1c1nc(-c2ccccc2)no1` [Ref 4], the results for the half-inhibitory concentration (IC50) on orexin-1 (setting [1]) and on human orexin-2 receptor (setting [2]) were above 8500 nM and above 10000 nM, respectively.

Turning to `O=C(c1cc(Cl)ccc1-n1nccn1)N1CCC[C@H]1c1nc(-c2ccccc2OC(F)F)no1` [compound 186], the 50% inhibitory concentration (IC50) on orexin-1 (setting [1]) turned out to be 138 nM; on human orexin-2 receptor (setting [2]), 17 nM.

For `COc1cc(C)cc(-c2nc([C@@H]3CCCN3C(=O)c3cc(C)c(C)cc3-n3nccn3)no2)c1` [compound 382, (4,5-Dimethyl-2-[1,2,3]triazol-2-yl-phenyl)-{(S)-2-[5-(3-methoxy-5-methyl-phenyl)-[1,2,4]oxadiazol-3-yl]-pyrrolidin-1-yl}-methanone], the IC50 on orexin-1 (setting [1]) came to 10 nM; at human orexin-2 receptor (setting [2]), 4 nM.

Take `COc1c(F)cccc1-c1noc([C@@H]2CCCN2C(=O)c2cccc(C)c2-n2nccn2)n1` [compound 197, {(S)-2-[3-(3-Fluoro-2-methoxy-phenyl)-[1,2,4]oxadiazol-5-yl]-pyrrolidin-1-yl}-(3-methyl-2-[1,2,3]triazol-2-yl-phenyl)-methanone]: the results for the 50% inhibitory concentration (IC50) at orexin-1 (setting [1]) and at human orexin-2 receptor (setting [2]) were 354 nM and 93 nM, respectively.

For `CCOc1ccccc1-c1cnc([C@@H]2CCCN2C(=O)c2ccc(C)cc2-n2nccn2)[nH]1` [compound 518, {(S)-2-[5-(2-Ethoxy-phenyl)-1H-imidazol-2-yl]-pyrrolidin-1-yl}-(4-methyl-2-[1,2,3]triazol-2-yl-phenyl)-methanone], the concentration for half-maximal inhibition (IC50) at orexin-1 (setting [1]) came out at 2 nM; at human orexin-2 receptor (setting [2]), 1 nM.

With `Cc1ccc(-n2nccn2)c(C(=O)N2CCC[C@H]2c2nc(-c3ccc(C)c(C)n3)no2)c1` [compound 63, {(S)-2-[3-(5,6-Dimethyl-pyridin-2-yl)-[1,2,4]oxadiazol-5-yl]-pyrrolidin-1-yl}-(5-methyl-2-[1,2,3]triazol-2-yl-phenyl)-methanone], the IC50 on orexin-1 (setting [1]) was 1420 nM; at human orexin-2 receptor (setting [2]), 361 nM.

Take `CCOc1ncccc1-c1nnc([C@@H]2CCCN2C(=O)c2cc(Cl)c(C)cc2-n2nccn2)[nH]1` [compound 487, (5-Chloro-4-methyl-2-[1,2,3]triazol-2-yl-phenyl)-{(S)-2-[5-(2-ethoxy-pyridin-3-yl)-4H-[1,2,4]triazol-3-yl]-pyrrolidin-1-yl}-methanone]: the IC50 on orexin-1 (setting [1]) stood at 23 nM; at human orexin-2 receptor (setting [2]) it was 8 nM.

As for `Cc1ccc(-n2nccn2)c(C(=O)N2CCC[C@H]2c2nc(-c3cccc(OC(F)(F)F)c3)no2)c1` [compound 270, (5-Methyl-2-[1,2,3]triazol-2-yl-phenyl)-{(S)-2-[3-(3-trifluoromethoxy-phenyl)-[1,2,4]oxadiazol-5-yl]-pyrrolidin-1-yl}-methanone], the concentration for half-maximal inhibition (IC50) on orexin-1 (setting [1]) was 282 nM; on human orexin-2 receptor (setting [2]) it was 32 nM.

For the molecule `Cc1cc(C)c(-n2nccn2)c(C(=O)N2CCC[C@H]2c2nc(-c3cccc(Cl)c3C)no2)c1` [compound 119], the IC50 at orexin-1 (setting [1]) turned out to be 188 nM; on human orexin-2 receptor, 24 nM.

Regarding `COc1cc(C(=O)N2CCC[C@H]2c2noc(-c3cccc(F)c3C)n2)c(-n2nccn2)cc1C` [compound 310, {(S)-2-[5-(3-Fluoro-2-methyl-phenyl)-[1,2,4]oxadiazol-3-yl]-pyrrolidin-1-yl}-(5-methoxy-4-methyl-2-[1,2,3]triazol-2-yl-phenyl)-methanone], the IC50 at orexin-1 (setting [1]) worked out at 59 nM; on human orexin-2 receptor (setting [2]), 2 nM.

Consider `COc1c(Cl)cccc1-c1nnc([C@@H]2CCCN2C(=O)c2cc(C)ccc2-n2nccn2)[nH]1` [compound 488, {(S)-2-[5-(3-Chloro-2-methoxy-phenyl)-4H-[1,2,4]triazol-3-yl]-pyrrolidin-1-yl}-(5-methyl-2-[1,2,3]triazol-2-yl-phenyl)-methanone], for which the IC50 turned out to be 136 nM on orexin-1 (setting [1]) and 14 nM on human orexin-2 receptor (setting [2]).

Turning to `O=C(c1ccc(F)cc1-n1cccn1)N1CCC[C@H]1c1nc(-c2ccccc2OC(F)(F)F)no1` [compound 162, (4-Fluoro-2-pyrazol-1-yl-phenyl)-{(S)-2-[3-(2-trifluoromethoxy-phenyl)-[1,2,4]oxadiazol-5-yl]-pyrrolidin-1-yl}-methanone], the values for the 50% inhibitory concentration (IC50) at orexin-1 (setting [1]) and at human orexin-2 receptor (setting [2]) were 818 nM and 347 nM, respectively.

Turning to `Cc1ccc(-n2nccn2)c(C(=O)N2CCC[C@H]2c2nc(-c3cccc(Cl)c3C)no2)c1` [compound 23], the IC50 turned out to be 40 nM on orexin-1 (setting [1]) and 7 nM on human orexin-2 receptor (setting [2]).

`COc1c(F)cccc1-c1nc([C@@H]2CCCN2C(=O)c2cccc(Cl)c2-n2nccn2)no1` [compound 363]: the IC50 was found to be 155 nM on orexin-1 (setting [1]) and 111 nM on human orexin-2 receptor (setting [2]).

On to `Cc1ccc(-n2nccn2)c(C(=O)N2CCC[C@H]2c2cn(-c3ccccc3)nn2)c1` [Example 536, (5-Methyl-2-[1,2,3]triazol-2-yl-phenyl)-[(S)-2-(1-phenyl-1H-[1,2,3]triazol-4-yl)-pyrrolidin-1-yl]-methanone], for which the IC50 at orexin-1 (setting [1]) turned out to be 3430 nM; on human orexin-2 receptor (setting [2]), 2140 nM.

As to `Cc1ccc(C(=O)N2CCC[C@H]2c2ncc(-c3ccccc3OC(F)(F)F)[nH]2)c(-n2nccn2)c1` [compound 517, (4-Methyl-2-[1,2,3]triazol-2-yl-phenyl)-{(S)-2-[5-(2-trifluoromethoxy-phenyl)-1H-imidazol-2-yl]-pyrrolidin-1-yl}-methanone], the half-inhibitory concentration (IC50) is 6 nM on orexin-1 (setting [1]) and 2 nM on human orexin-2 receptor (setting [2]).

As to `COc1ccc(-c2ccccc2)c(C(=O)N2CCC[C@H]2c2nc(-c3cccc(Cl)c3C)no2)c1` [compound 101, {(S)-2-[3-(3-Chloro-2-methyl-phenyl)-[1,2,4]oxadiazol-5-yl]-pyrrolidin-1-yl}-(4-methoxy-biphenyl-2-yl)-methanone], the IC50 worked out at 9 nM at orexin-1 (setting [1]) and 6 nM on human orexin-2 receptor (setting [2]).

Consider `Cc1ccc(C)c(-c2nc([C@@H]3CCCN3C(=O)c3cc(Cl)ccc3-n3nccn3)no2)c1` [compound 396], for which the results for the IC50 at orexin-1 and at human orexin-2 receptor were 134 nM and 15 nM, respectively.

On to `Cc1ccc(-n2nccn2)c(C(=O)N2CCC[C@H]2c2cc(-c3ccccc3)no2)c1` [Example 420, (5-Methyl-2-[1,2,3]triazol-2-yl-phenyl)-[(S)-2-(3-phenyl-isoxazol-5-yl)-pyrrolidin-1-yl]-methanone], for which the results for the IC50 at orexin-1 (setting [1]) and on human orexin-2 receptor (setting [2]) were 1060 nM and 133 nM, respectively.

Consider “(4,5-Dimethyl-2-[1,2,3]triazol-2-yl-phenyl)-{(S)-2-[5-(2-trifluoromethoxy-phenyl)-[1,2,4]oxadiazol-3-yl]-pyrrolidin-1-yl}-methanone [Example 304]”, for which the IC50 was 4 nM at orexin-1 (setting [1]) and 3 nM at human orexin-2 receptor (setting [2]).

`Cc1ccc(-n2nccn2)c(C(=O)N2CCC[C@@]2(C)c2nnc(-c3ccccc3OC(F)(F)F)[nH]2)c1` [Example 542, (5-Methyl-2-[1,2,3]triazol-2-yl-phenyl)-{(S)-2-methyl-2-[5-(2-trifluoromethoxy-phenyl)-4H-[1,2,4]triazol-3-yl]-pyrrolidin-1-yl}-methanone]: the values for the IC50 at orexin-1 (setting [1]) and at human orexin-2 receptor (setting [2]) were 33 nM and 28 nM, respectively.

As to `CCOc1c(F)cccc1-c1nc([C@@H]2CCCN2C(=O)c2cc(C)ccc2-n2nccn2)no1` [compound 319, {(S)-2-[5-(2-Ethoxy-3-fluoro-phenyl)-[1,2,4]oxadiazol-3-yl]-pyrrolidin-1-yl}-(5-methyl-2-[1,2,3]triazol-2-yl-phenyl)-methanone], the IC50 at orexin-1 (setting [1]) worked out at 11 nM; on human orexin-2 receptor (setting [2]) it was 2 nM.

As to `CCOc1c(F)cccc1-c1noc([C@@H]2CCCN2C(=O)c2cc(C)ccc2-n2nccn2)n1` [compound 56, {(S)-2-[3-(2-Ethoxy-3-fluoro-phenyl)-[1,2,4]oxadiazol-5-yl]-pyrrolidin-1-yl}-(5-methyl-2-[1,2,3]triazol-2-yl-phenyl)-methanone], the figures for the IC50 at orexin-1 (setting [1]) and at human orexin-2 receptor (setting [2]) were 16 nM and 7 nM, respectively.

Consider `Cc1ccc(-n2nccn2)c(C(=O)N2CCC[C@H]2c2nc(-c3ccc4c(c3)OC(F)(F)O4)no2)c1` [compound 19, {(S)-2-[3-(2,2-Difluoro-benzo[1,3]dioxol-5-yl)-[1,2,4]oxadiazol-5-yl]-pyrrolidin-1-yl}-(5-methyl-2-[1,2,3]triazol-2-yl-phenyl)-methanone], for which the values for the IC50 on orexin-1 (setting [1]) and on human orexin-2 receptor (setting [2]) were 1860 nM and 652 nM, respectively.

Regarding `COc1cccc(F)c1-c1noc([C@@H]2CCCN2C(=O)c2cc(C)ccc2-n2nccn2)n1` [compound 72, {(S)-2-[3-(2-Fluoro-6-methoxy-phenyl)-[1,2,4]oxadiazol-5-yl]-pyrrolidin-1-yl}-(5-methyl-2-[1,2,3]triazol-2-yl-phenyl)-methanone], the values for the half-inhibitory concentration (IC50) on orexin-1 (setting [1]) and at human orexin-2 receptor (setting [2]) were 901 nM and 57 nM, respectively.

Regarding `Cc1ccc(-n2nccn2)c(C(=O)N2CCC[C@H]2c2cc(-c3ccccc3OC(F)(F)F)on2)c1` [compound 434, (5-Methyl-2-[1,2,3]triazol-2-yl-phenyl)-{(S)-2-[5-(2-trifluoromethoxy-phenyl)-isoxazol-3-yl]-pyrrolidin-1-yl}-methanone], the IC50 on orexin-1 (setting [1]) came out at 21 nM; on human orexin-2 receptor (setting [2]), 5 nM.

Take `COc1cc(C(=O)N2CCC[C@H]2c2nnc(-c3cccc(Cl)c3C)o2)c(-n2nccn2)cc1Cl` [compound 446]: the half-maximal inhibitory concentration (IC50) came to 82 nM on orexin-1 (setting [1]) and 6 nM at human orexin-2 receptor (setting [2]).

Turning to `Cc1ccc(C(=O)N2CCC[C@H]2c2noc(-c3ccccc3OC(F)(F)F)n2)c(-n2nccn2)c1` [compound 374, (4-Methyl-2-[1,2,3]triazol-2-yl-phenyl)-{(S)-2-[5-(2-trifluoromethoxy-phenyl)-[1,2,4]oxadiazol-3-yl]-pyrrolidin-1-yl}-methanone], the IC50 on orexin-1 (setting [1]) came out at 18 nM; on human orexin-2 receptor (setting [2]), 11 nM.
